Laboratory results taken from patent publication US20260234159A1, “SMALL MOLECULE TREATMENT OF FATTY LIVER DISEASE AND HCC” (SCANDIEDGE THERAPEUTICS AB, priority 2023, published 2026).

Test: In vivo toxicological study in rats: plasma chemistry
Design: species or system rats of the Wistar strain
Procedure: Forty-two male and forty-two female rats of the Wistar strain were allocated to the study. Three groups of three males and three females were given doses of 30, 100 and 300 mg/kg of target compounds (Table 8). The vehicle was 1.5 w/w % HPMC, 1.5 w/w % PS80 in 10 mM PBS, pH 7 and dose volume were 5 mL/kg. The animals were acclimatised at least 14 day prior to the study and exposed to a 12 hours light, 12 hours dark light cycle. The formulations were administered via oral gavage. Administration occurred once daily in the morning for seven consecutive days. Blood for scheduled haematology and plasma chemistry were taken at necropsy. For plasma chemistry, 0.6 ml blood (lithium heparin) per animal and for haematology, 0.5 ml blood (K2EDTA) per animal. The blood and plasma were analysed using Exigo analyzer and Vetscan equipment. Blood samples were kept in room temperature […] after collection and mixing. The blood samples were analysed as whole blood within 60 min of collection. The VetScan analyser was calibrated with calibration samples of known plasma levels of each parameter before start of analysis, occasionally during the analysis period of study samples and after completed analyses (Table 10).

[1] = female, 30 mg/kg oral daily 7 d
[2] = female, 100 mg/kg oral daily 7 d
[3] = female, 300 mg/kg oral daily 7 d
[4] = plasma, Sex/Group F/8, 30-300 mg/kg of SET159
[5] = plasma, Sex/Group F/9, 30-300 mg/kg of SET159
[6] = plasma, Sex/Group F/10, 30-300 mg/kg of SET159
[7] = plasma, Sex/Group M/8, 30-300 mg/kg of SET159
[8] = plasma, Sex/Group M/9, 30-300 mg/kg of SET159
[9] = plasma, Sex/Group M/10, 30-300 mg/kg of SET159

Question: What does the source list for `COc1ccccc1NC(=O)N1CCc2c(sc(NC(=O)c3cccc4ccccc34)c2C#N)C1` [PKL-A152]?
Answer: ALB [1]: 56 g/L; ALP [1]: 84 U/L; ALT [1]: 23 U/L; AMY [1]: 548 U/L; BUN [1]: 4.9 mmol/L; CA [1]: 2.90 mmol/L; CRE [1]: 44 µmol/L; GLOB [1]: 7 g/L; GLU [1]: 8.0 mmol/L; K+ [1]: 2.9 mmol/L; NA+ [1]: 148 mmol/L; PHOS [1]: 2.28 mmol/L; TBIL [1]: 4.0 µmol/L; TP [1]: 64 g/L; ALB [2]: 58 g/L; ALP [2]: 162 U/L; ALT [2]: 20 U/L; AMY [2]: 573 U/L; BUN [2]: 6.0 mmol/L; CA [2]: 2.87 mmol/L; CRE [2]: 48 µmol/L; GLOB [2]: 8 g/L; GLU [2]: 7.8 mmol/L; K+ [2]: 4.5 mmol/L; NA+ [2]: 139 mmol/L; PHOS [2]: 2.38 mmol/L; TBIL [2]: 4.7 µmol/L; TP [2]: 66 g/L; ALB [3]: 56 g/L; ALP [3]: 134 U/L; ALT [3]: 21 U/L; AMY [3]: 539 U/L; BUN [3]: 5.2 mmol/L; CA [3]: 2.92 mmol/L; CRE [3]: 51 µmol/L; GLOB [3]: 8 g/L; GLU [3]: 7.7 mmol/L; K+ [3]: 4.8 mmol/L; NA+ [3]: 140 mmol/L; PHOS [3]: 2.39 mmol/L; TBIL [3]: 4.7 µmol/L; TP [3]: 64 g/L; ALB (male, 30 mg/kg oral daily 7 d): 50 g/L; ALP (male, 30 mg/kg oral daily 7 d): 272 U/L; ALT (male, 30 mg/kg oral daily 7 d): 30 U/L; AMY (male, 30 mg/kg oral daily 7 d): 837 U/L; BUN (male, 30 mg/kg oral daily 7 d): 5.7 mmol/L; CA (male, 30 mg/kg oral daily 7 d): 2.99 mmol/L; CRE (male, 30 mg/kg oral daily 7 d): 42 µmol/L; GLOB (male, 30 mg/kg oral daily 7 d): 13 g/L; GLU (male, 30 mg/kg oral daily 7 d): 8.0 mmol/L; K+ (male, 30 mg/kg oral daily 7 d): 4.6 mmol/L; NA+ (male, 30 mg/kg oral daily 7 d): 140 mmol/L; PHOS (male, 30 mg/kg oral daily 7 d): 2.11 mmol/L; TBIL (male, 30 mg/kg oral daily 7 d): 4.0 µmol/L; TP (male, 30 mg/kg oral daily 7 d): 63 g/L; ALB (male, 100 mg/kg oral daily 7 d): 51 g/L; ALP (male, 100 mg/kg oral daily 7 d): 267 U/L; ALT (male, 100 mg/kg oral daily 7 d): 25 U/L; AMY (male, 100 mg/kg oral daily 7 d): 838 U/L; BUN (male, 100 mg/kg oral daily 7 d): 5.7 mmol/L; CA (male, 100 mg/kg oral daily 7 d): 2.98 mmol/L; CRE (male, 100 mg/kg oral daily 7 d): 42 µmol/L; GLOB (male, 100 mg/kg oral daily 7 d): 12 g/L; GLU (male, 100 mg/kg oral daily 7 d): 8.2 mmol/L; K+ (male, 100 mg/kg oral daily 7 d): 4.7 mmol/L; NA+ (male, 100 mg/kg oral daily 7 d): 141 mmol/L; PHOS (male, 100 mg/kg oral daily 7 d): 2.57 mmol/L; TBIL (male, 100 mg/kg oral daily 7 d): 5.0 µmol/L; TP (male, 100 mg/kg oral daily 7 d): 63 g/L; ALB (male, 300 mg/kg oral daily 7 d): 49 g/L; ALP (male, 300 mg/kg oral daily 7 d): 244 U/L; ALT (male, 300 mg/kg oral daily 7 d): 28 U/L; AMY (male, 300 mg/kg oral daily 7 d): 854 U/L; BUN (male, 300 mg/kg oral daily 7 d): 5.5 mmol/L; CA (male, 300 mg/kg oral daily 7 d): 3.04 mmol/L; CRE (male, 300 mg/kg oral daily 7 d): 51 µmol/L; GLOB (male, 300 mg/kg oral daily 7 d): 14 g/L; GLU (male, 300 mg/kg oral daily 7 d): 8.6 mmol/L; K+ (male, 300 mg/kg oral daily 7 d): 4.5 mmol/L; NA+ (male, 300 mg/kg oral daily 7 d): 143 mmol/L; PHOS (male, 300 mg/kg oral daily 7 d): 2.47 mmol/L; TBIL (male, 300 mg/kg oral daily 7 d): 4.7 µmol/L; TP (male, 300 mg/kg oral daily 7 d): 63 g/L

Question: For `N#Cc1c(NC(=O)c2cccc3ccccc23)sc2c1CCN(C(=O)Nc1ccccc1OC(F)(F)F)C2` [PKL-A159], which ALB [4] is on record?
Answer: 56 g/L

Question: What about the ALP [4] of the same compound?
Answer: 179 U/L

Question: What about the ALT [4] of the same compound?
Answer: 22 U/L

Question: What about the AMY [4] of the same compound?
Answer: 541 U/L

Question: And the BUN [4]?
Answer: 6.2 mmol/L

Question: What about the CA [4] of the same compound?
Answer: 2.76 mmol/L

Question: And the CRE [4]?
Answer: 39 µmol/L

Question: What about the GLOB [4] of the same compound?
Answer: 9 g/L

Question: What about the GLU [4] of the same compound?
Answer: 7.8 mmol/L

Question: What about the “K+” value [4] of the same compound?
Answer: 4.9 mmol/L

Question: What about the “NA+” value [4] of the same compound?
Answer: 139 mmol/L

Question: And the PHOS [4]?
Answer: 2.59 mmol/L

Question: And the TBIL [4]?
Answer: 4.0 µmol/L

Question: What about the TP [4] of the same compound?
Answer: 65 g/L

Question: And the ALB [5]?
Answer: 57 g/L

Question: And the ALP [5]?
Answer: 135 U/L

Question: And the ALT [5]?
Answer: 21 U/L

Question: And the AMY [5]?
Answer: 542 U/L

Question: And the BUN [5]?
Answer: 5.1 mmol/L

Question: What about the CA [5] of the same compound?
Answer: 2.88 mmol/L

Question: And the CRE [5]?
Answer: 46 µmol/L

Question: And the GLOB [5]?
Answer: 8 g/L

Question: What about the GLU [5] of the same compound?
Answer: 7.0 mmol/L

Question: What about the “K+” value [5] of the same compound?
Answer: 4.4 mmol/L

Question: What about the “NA+” value [5] of the same compound?
Answer: 139 mmol/L

Question: What about the PHOS [5] of the same compound?
Answer: 2.65 mmol/L

Question: What about the TBIL [5] of the same compound?
Answer: 4.3 µmol/L

Question: What about the TP [5] of the same compound?
Answer: 65 g/L

Question: And the ALB [6]?
Answer: 53 g/L

Question: And the ALP [6]?
Answer: 175 U/L

Question: What about the ALT [6] of the same compound?
Answer: 23 U/L

Question: What about the AMY [6] of the same compound?
Answer: 481 U/L

Question: And the BUN [6]?
Answer: 4.8 mmol/L

Question: And the CA [6]?
Answer: 2.89 mmol/L

Question: What about the CRE [6] of the same compound?
Answer: 40 µmol/L

Question: What about the GLOB [6] of the same compound?
Answer: 9 g/L

Question: What about the GLU [6] of the same compound?
Answer: 7.8 mmol/L

Question: What about the “K+” value [6] of the same compound?
Answer: 4.7 mmol/L

Question: And the “NA+” value [6]?
Answer: 139 mmol/L

Question: What about the PHOS [6] of the same compound?
Answer: 2.80 mmol/L

Question: And the TBIL [6]?
Answer: 4.0 µmol/L

Question: And the TP [6]?
Answer: 62 g/L

Question: What about the ALB [7] of the same compound?
Answer: 49 g/L

Question: And the ALP [7]?
Answer: 274 U/L

Question: What about the ALT [7] of the same compound?
Answer: 25 U/L

Question: What about the AMY [7] of the same compound?
Answer: 719 U/L

Question: And the BUN [7]?
Answer: 5.9 mmol/L

Question: And the CA [7]?
Answer: 2.94 mmol/L

Question: What about the CRE [7] of the same compound?
Answer: 29 µmol/L

Question: And the GLOB [7]?
Answer: 11 g/L

Question: What about the GLU [7] of the same compound?
Answer: 8.0 mmol/L

Question: What about the “K+” value [7] of the same compound?
Answer: 5.0 mmol/L

Question: What about the “NA+” value [7] of the same compound?
Answer: 141 mmol/L

Question: What about the PHOS [7] of the same compound?
Answer: 2.44 mmol/L

Question: What about the TBIL [7] of the same compound?
Answer: 4.0 µmol/L

Question: What about the TP [7] of the same compound?
Answer: 60 g/L

Question: What about the ALB [8] of the same compound?
Answer: 47 g/L

Question: And the ALP [8]?
Answer: 324 U/L

Question: What about the ALT [8] of the same compound?
Answer: 30 U/L

Question: And the AMY [8]?
Answer: 823 U/L

Question: And the BUN [8]?
Answer: 6.8 mmol/L

Question: What about the CA [8] of the same compound?
Answer: 2.99 mmol/L

Question: And the CRE [8]?
Answer: 36 µmol/L

Question: And the GLOB [8]?
Answer: 16 g/L

Question: And the GLU [8]?
Answer: 8.8 mmol/L

Question: And the “K+” value [8]?
Answer: 5.0 mmol/L

Question: What about the “NA+” value [8] of the same compound?
Answer: 141 mmol/L

Question: And the PHOS [8]?
Answer: 2.43 mmol/L

Question: What about the TBIL [8] of the same compound?
Answer: 4.3 µmol/L

Question: What about the TP [8] of the same compound?
Answer: 63 g/L

Question: And the ALB [9]?
Answer: 50 g/L

Question: And the ALP [9]?
Answer: 284 U/L

Question: What about the ALT [9] of the same compound?
Answer: 24 U/L

Question: What about the AMY [9] of the same compound?
Answer: 806 U/L

Question: And the BUN [9]?
Answer: 6.1 mmol/L

Question: What about the CA [9] of the same compound?
Answer: 3.02 mmol/L

Question: What about the CRE [9] of the same compound?
Answer: 47 µmol/L

Question: What about the GLOB [9] of the same compound?
Answer: 13 g/L

Question: What about the GLU [9] of the same compound?
Answer: 7.9 mmol/L

Question: What about the “K+” value [9] of the same compound?
Answer: 4.8 mmol/L

Question: And the “NA+” value [9]?
Answer: 142 mmol/L

Question: What about the PHOS [9] of the same compound?
Answer: 2.42 mmol/L

Question: What about the TBIL [9] of the same compound?
Answer: 4.3 µmol/L

Question: What about the TP [9] of the same compound?
Answer: 62 g/L
